What was measured:
Human COX-1 = biological target: T1, Human COX-1 (Homo sapiens, UniProt P23219); assay: Inhibitory activity against human COX-1 using peripheral blood (calcium ionophore A23187, thromboxane B2 EIA); format: cell-based; conditions: 37° C. 4.5 hours then A23187 500 μM 30 minutes
T1 construct: 500 μl of peripheral blood collected from a healthy volunteer; endogenous in cells; host or cells: human whole peripheral blood from a healthy volunteer, stimulated with calcium ionophore A23187
T1 sequence (P23219 24-599): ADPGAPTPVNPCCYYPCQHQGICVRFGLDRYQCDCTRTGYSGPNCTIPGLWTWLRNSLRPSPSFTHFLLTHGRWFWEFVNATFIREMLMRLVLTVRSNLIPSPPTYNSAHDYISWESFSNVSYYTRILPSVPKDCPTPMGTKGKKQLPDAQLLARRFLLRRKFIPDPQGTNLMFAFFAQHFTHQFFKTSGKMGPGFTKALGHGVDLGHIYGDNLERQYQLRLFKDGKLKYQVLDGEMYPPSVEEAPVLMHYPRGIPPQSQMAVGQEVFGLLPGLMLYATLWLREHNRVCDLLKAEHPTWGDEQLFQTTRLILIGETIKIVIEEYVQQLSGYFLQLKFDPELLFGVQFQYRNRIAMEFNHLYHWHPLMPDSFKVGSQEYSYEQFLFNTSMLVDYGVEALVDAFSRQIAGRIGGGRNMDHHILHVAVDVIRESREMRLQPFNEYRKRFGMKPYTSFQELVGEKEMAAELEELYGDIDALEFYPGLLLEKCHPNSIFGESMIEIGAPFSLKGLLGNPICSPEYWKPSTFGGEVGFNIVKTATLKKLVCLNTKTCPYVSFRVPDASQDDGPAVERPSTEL
Description: (§1) Method for Measuring Inhibitory Activity Against Human COX-1 and COX-2 Using Peripheral Blood
(§2) 1 μl of a solution of the compound of the present invention in DMSO was added to 500 μl of peripheral blood collected from a healthy volunteer.
In the case of measuring COX-1 activity, after incubating at 37° C. for 4.5 hours, calcium ionophore A23187 was added to a final concentration of 500 μM followed by additional incubation at 37° C. for 30 minutes and transferring to ice to stop the reaction.

Human COX-2 = biological target: T2, Human COX-2 (Homo sapiens, UniProt P35354); assay: Inhibitory activity against human COX-2 using peripheral blood (LPS-stimulated, thromboxane B2 EIA); format: cell-based; conditions: LPS 10 μg/ml, 37° C. 5 hours
T2 construct: 500 μl of peripheral blood collected from a healthy volunteer; endogenous in cells; host or cells: human whole peripheral blood from a healthy volunteer, stimulated with LPS
T2 sequence (P35354 18-604): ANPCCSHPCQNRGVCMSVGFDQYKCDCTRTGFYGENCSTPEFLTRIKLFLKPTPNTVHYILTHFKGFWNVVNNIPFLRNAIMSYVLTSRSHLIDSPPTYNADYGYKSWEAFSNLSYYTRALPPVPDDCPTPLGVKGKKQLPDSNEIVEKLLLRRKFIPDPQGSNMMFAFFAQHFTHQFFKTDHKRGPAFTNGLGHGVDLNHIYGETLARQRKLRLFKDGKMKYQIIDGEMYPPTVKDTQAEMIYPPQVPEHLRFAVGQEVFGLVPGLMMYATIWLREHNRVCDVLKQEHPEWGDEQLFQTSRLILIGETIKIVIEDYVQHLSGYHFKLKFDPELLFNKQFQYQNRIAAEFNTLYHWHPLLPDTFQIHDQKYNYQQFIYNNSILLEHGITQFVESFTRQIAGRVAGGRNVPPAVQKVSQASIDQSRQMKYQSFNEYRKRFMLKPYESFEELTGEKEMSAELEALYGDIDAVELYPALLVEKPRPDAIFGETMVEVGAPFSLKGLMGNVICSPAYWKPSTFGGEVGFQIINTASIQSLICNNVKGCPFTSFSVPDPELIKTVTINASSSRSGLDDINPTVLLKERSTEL
Description: as §1, §2
In the case of measuring COX-2 activity, LPS (E. coli 026:B6) was added onto blood to which the compound has been added to a concentration of 10 μg/ml followed by incubating at 37° C. for 5 hours and transferring onto ice to stop the reaction.

SMILES | IC50 (Human COX-1) [nM] | IC50 (Human COX-2) [nM] | melting point [°C]
CS(=O)(=O)c1cnc2c(c1)cc(-c1ncco1)n2Cc1ccc(F)cc1 [Example 3, 1-(4-Fluorobenzyl)-2-(oxazol-2-yl)-5-methanesulfonyl-1H-pyrrolo[2,3-b]pyridine] | > 20000 | 300 | 200 to 201
CS(=O)(=O)c1ccc2c(c1)cc(-c1ccco1)n2CC1CCCCC1 [Example 9, 1-Cyclohexylmethyl-2-(2-furanyl)-5-methanesulfonylindole] | > 20000 | 2000 | –
CS(=O)(=O)c1ccc2c(c1)cc(-c1nccs1)n2Cc1ccc(F)cc1 [Example 2, 1-(4-Fluorobenzyl)-5-methanesulfonyl-2-(thiazol-2-yl)indole] | > 20000 | 500 | –
CS(=O)(=O)c1cnc2c(c1)cc(-c1ccco1)n2Cc1ccc(F)cc1 [Example 1, 2-(2-Furyl)-1-(4-fluorobenzyl)-5-methanesulfonyl-1H-pyrrolo[2,3-b]pyridine] | > 20000 | 150 | –
Cc1ccc(-c2cc3cc(S(C)(=O)=O)cnc3n2Cc2ccc(F)cc2)o1 [Example 11, 1-(4-Fluorobenzyl)-5-methanesulfonyl-2-(5-methylfuran-2-yl)-1H-pyrrolo[2,3-b]pyridine] | > 20000 | 200 | –
CNC(=O)c1ccc(-c2cc3cc(S(C)(=O)=O)ccc3n2Cc2ccc(F)cc2)nc1 [Example 17, 1-(4-Fluorobenzyl)-5-methanesulfonyl-2-(5-methylaminocarbonylpyridin-2-yl)indole] | > 20000 | 800 | –
CS(=O)(=O)c1ccc2c(c1)cc(C1=CCOCC1)n2Cc1ccc(F)cc1 [Example 14, 2-(5,6-Dihydro-2H-4-pyranyl)-1-(4-fluorobenzyl)-5-methanesulfonyl-indole] | > 20000 | 100 | –
CS(=O)(=O)c1cnc2c(c1)cc(-c1ccco1)n2Cc1ccccn1 [Example 10, 2-(2-Furanyl)-5-methanesulfonyl-1-(2-pyridylmethyl)-1H-pyrrolo[2,3-b]pyridine] | > 20000 | 1500 | –
CS(=O)(=O)c1ccc2c(c1)cc(-c1ccco1)n2Cc1ccc(F)cc1 [Example 8, 2-(2-Furanyl)-1-(4-fluorobenzyl)-5-methanesulfonyl-1H-indole] | > 20000 | 800 | –
CS(=O)(=O)c1cnc2c(c1)cc(-c1ccco1)n2CC1CCCCC1 [Example 12, 2-(2-Furanyl)-1-cyclohexylmethyl-5-methanesulfonyl-1H-pyrrolo[2,3-b]pyridine] | > 20000 | 150 | –
CS(=O)(=O)c1ccc2c(c1)cc(-c1nnco1)n2Cc1ccc(F)cc1 [Example 4, 1-(4-Fluorobenzyl)-5-methanesulfonyl-2-([1,3,4]oxadiazol-2-yl)indole] | > 20000 | 4000 | –
CS(=O)(=O)c1ccc2c(c1)cc(C1CCCO1)n2Cc1ccc(F)cc1 (stereo not shown) [Example 13, 2-(2-Tetrahydrofuranyl)-1-(4-fluorobenzyl)-5-methanesulfonyl-indole] | > 10000 | 4000 | –
CS(=O)(=O)c1cnc2c(c1)cc(-c1nnco1)n2Cc1ccc(F)cc1 [Example 33, 1-(4-Fluorobenzyl)-5-methanesulfonyl-2-([1,3,4]oxadiazol-2-yl)-1H-pyrrolo[2,3-b]pyridine] | > 20000 | 200 | –
CS(=O)(=O)c1cnc2c(c1)cc(-c1ccccn1)n2Cc1ccc(F)cc1 [Example 5, 5-Methanesulfonyl-2-(2-pyridyl)-1-(4-fluorobenzyl)-1H-pyrrolo[2,3-b]pyridine] | > 20000 | 400 | –
CS(=O)(=O)c1cnc2c(c1)cc(-c1ncccn1)n2CC1CCCCC1 [Example 7, 1-Cyclohexylmethyl-5-methanesulfonyl-2-(2-pyrimidinyl)-1H-pyrrolo[2,3-b]pyridine] | > 20000 | 1500 | –

Reference: patent US6875770B2, “Indole derivative having heterocycle and mono- or diazaindole derivative” (Chugai Seiyaku Kabushiki Kaisha, priority 1998, dated 2005)
